# Data as given in publication PMC9318694 (Molecules, 2022).
# pKi: −log10 of the molar value. Like-named read-outs stand apart in the source and are kept apart here.
# Tests used:
# D2R [1] = biological target: T1, D2R (Homo sapiens, UniProt P14416); experiment: HTRF competitive binding screening of virtual hits at 10 µM (normalized decrease in fluorescence); conditions: for Normalized Decrease in Fluorescence ± SD: Table 3, 10 µM, n = 4, normalized to the control; for NDF (normalized decreased fluorescence) ± SD: Table S9, all selected virtual hits, n = 4, 10 µM
# T1 sequence (P14416 whole entry): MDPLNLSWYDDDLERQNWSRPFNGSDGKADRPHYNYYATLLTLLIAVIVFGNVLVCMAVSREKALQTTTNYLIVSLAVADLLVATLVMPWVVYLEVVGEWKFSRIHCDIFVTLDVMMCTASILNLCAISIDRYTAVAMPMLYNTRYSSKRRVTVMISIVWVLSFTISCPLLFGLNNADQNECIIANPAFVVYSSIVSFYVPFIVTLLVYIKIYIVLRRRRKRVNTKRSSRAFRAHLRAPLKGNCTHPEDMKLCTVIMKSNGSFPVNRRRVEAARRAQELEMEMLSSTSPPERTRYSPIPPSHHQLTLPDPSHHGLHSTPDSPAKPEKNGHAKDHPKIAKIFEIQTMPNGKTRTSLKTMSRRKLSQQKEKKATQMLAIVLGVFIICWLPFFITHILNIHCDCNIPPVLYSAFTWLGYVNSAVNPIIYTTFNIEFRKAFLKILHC
# D2R [2] = biological target: T1, D2R; conditions: cited from earlier work
# D2R [3] = biological target: T1, D2R; experiment: HTRF KI determination of the selected ligands; format: binding; conditions: for Fold Difference in comparison to the determined KI of dopamine / pKi: Table 4; for pKi: n = 6
# Procedure: The selected compounds were investigated in vitro to determine their binding affinities (KI values) at D2R.
# All the HTRF assays were performed using a Tecan Spark plate reader. The respective settings were specifically modified and optimized for the determination of D2R ligand-binding affinities. […] Fluorophores were excited at 320 nm. A Dichroic 510 mirror was used, while lag and integration times of 100 and 400 µs were applied, respectively. Flashes were set to 75. Electronic gain was automatically optimized, while the z-position was optimized based on the well with the highest expected signal. […] The first plate was used to determine the gain and the z-position. Subsequently, the determined values were set manually for the second plate to enable direct comparison between the different plates.
# The cells were stored in liquid nitrogen until further use. […] Bromocriptine mesylate (50 mg; CAYM14598-50) was acquired from VWR. The assay was conducted according to the standard operation protocol (SOP) available from PerkinElmer/cisbio. The 96-well plates were incubated at room temperature for 2 h. The 96-well plates were read on a Tecan Spark plate reader (the settings are shown in Section 4.5). The respective concentrations of the dilution series were performed in triplicates. In total, KD determination was performed three times.
# The materials described in 4.6 were also used during KI determination of the ligands selected after screening. […] KI was determined following the SOP available at PerkinElmer/cisbio. The 96-well plates were incubated at room temperature in the dark for 2 h. The 96-well plates were read on a Tecan Spark plate reader (the settings are shown in Section 4.5). In total, KI determination was performed twice.
# [4] = Table S2, data set of inactives, radio-ligand binding (RLB) assays, ref ChEMBL, [71]-[92], read-out: KI
Normalized Decrease in Fluorescence ± SD (D2R [1]),NDF (normalized decreased fluorescence) ± SD (D2R [1]),Compound,pKi (D2R [2]; [4]),further results
9.44 ± 5.97,–,"CN1CCc2cccc3c2[C@H]1Cc1ccc(O)c(O)c1-3 [Compound 1, Apomorphine]",–,–
–,0.84 ± 0.23,CC/N=C1/SC(CC(=O)Nc2ccccc2C(F)(F)F)C(=O)N1CC (stereo not shown) [Compound 11],–,–
–,1.05 ± 0.50,CC1CC(C)CN(CCC(=O)Nc2ccc(F)c(F)c2)C1 (stereo not shown) [Compound 12],–,–
40.40 ± 1.39,–,CN1CCN(C2Cc3ccc(O)cc3Sc3ccc(Cl)cc32)CC1 (stereo not shown) [Compound 14],–,activity (KI range in words) (D2R [3]): nanomolar; Fold Difference in comparison to the determined KI of dopamine (D2R [3]): 2700; pKi (D2R [3]): 8.40
3.99 ± 2.58,3.99 ± 2.58,NS(=O)(=O)c1ccc(CCNCc2ccc(-c3cc(Cl)ccc3Cl)o2)cc1 [Compound 15],–,activity (KI range in words) (D2R [3]): micromolar; Fold Difference in comparison to the determined KI of dopamine (D2R [3]): 2.6; pKi (D2R [3]): 5.37
15.74 ± 18.15,15.74 ± 18.15,CCN(CCC(=O)Nc1cccc(OC)c1)Cc1ccccc1 [Compound 16],–,Fold Difference in comparison to the determined KI of dopamine (D2R [3]): 1.1; pKi (D2R [3]): 5.00
8.18 ± 3.62,8.18 ± 3.62,O=C(CCN1CCN(c2ccccc2F)CC1)Nc1cccc(F)c1 [Compound 17],–,activity (KI range in words) (D2R [3]): micromolar; Fold Difference in comparison to the determined KI of dopamine (D2R [3]): 9.0; pKi (D2R [3]): 5.91
10.85 ± 4.93,10.85 ± 4.93,O[C@H](CNCCNc1ccc(C(F)(F)F)cn1)CSc1ccc(F)cc1 [Compound 18],–,activity (KI range in words) (D2R [3]): micromolar; Fold Difference in comparison to the determined KI of dopamine (D2R [3]): 4.2; pKi (D2R [3]): 5.58
22.08 ± 6.62,22.08 ± 6.62,NC(=O)c1ccccc1OCCCN1CCN(c2ccccc2)CC1 [Compound 19],–,activity (KI range in words) (D2R [3]): submicromolar; Fold Difference in comparison to the determined KI of dopamine (D2R [3]): 34.7; pKi (D2R [3]): 6.49
38.69 ± 2.56,–,"O=C(CCCN1CC=C(n2c(=O)[nH]c3ccccc32)CC1)c1ccc(F)cc1 [Droperidol, droperidol]",–,–
9.21 ± 3.80,–,"c1cnc(N2CCN(Cc3ccc4c(c3)OCO4)CC2)nc1 [Piribedil, piribedil]",–,–
–,–,"COc1cccc(CCc2ccccc2OCCCCN2CCN(c3ncccn3)CC2)c1 [SC117, 2-[4-[4-[2-[2-(3-methoxyphenyl)ethyl]phenoxy]butyl]piperazin-1-yl]pyrimidine]",3.07,–
–,–,"COc1cccc(CCc2ccccc2OCCCCCN2CCN(c3ncccn3)CC2)c1 [SC118, 2-[4-[5-[2-[2-(3-methoxyphenyl)ethyl]phenoxy]pentyl]piperazin-1-yl]pyrimidine]",< 3.00,–
–,–,"COc1cccc(CCc2ccccc2OCCCCCN2CCN(c3ccc(F)cc3)CC2)c1 [SC119, 1-(4-fluorophenyl)-4-[5-[2-[2-(3-methoxyphenyl)ethyl]phenoxy]pentyl]piperazine]",3.07,–
–,–,"COc1cccc(CCc2ccccc2OCCN2CCN(c3ccccc3OC)CC2)c1 [SC120, 1-(2-methoxyphenyl)-4-[2-[2-[2-(3-methoxyphenyl)ethyl]phenoxy]ethyl]piperazine]",3.37,–
–,–,"COc1cccc(CCc2ccccc2OCCN2CCN(c3cccc(Cl)c3)CC2)c1 [SC121, 1-(3-chlorophenyl)-4-[2-[2-[2-(3-methoxyphenyl)ethyl]phenoxy]ethyl]piperazine]",< 3.00,–
–,–,"COc1cccc(CCc2ccccc2OCCCCN2CCN(c3ccccc3OC)CC2)c1 [SC122, 1-(2-methoxyphenyl)-4-[4-[2-[2-(3-methoxyphenyl)ethyl]phenoxy]butyl]piperazine]",4.17,–
–,–,"COc1cccc(CCc2ccccc2OCCCN2CCN(C)CC2)c1 [SC123, 1-[3-[2-[2-(3-methoxyphenyl)ethyl]phenoxy]propyl]-4-methylpiperazine]",3.25,–
–,–,"COc1cccc(CCc2ccccc2OCCCCCN2CCc3ccccc3C2)c1 [SC124, 2-[5-[2-[2-(3-methoxyphenyl)ethyl]phenoxy]pentyl]-3,4-dihydro-1H-isoquinoline]",< 3.00,–
–,–,"COc1cccc(CCc2ccccc2OCCCCCN2CCc3cc(OC)c(OC)cc3C2)c1 [SC125, 6,7-dimethoxy-2-[5-[2-[2-(3-methoxyphenyl)ethyl]phenoxy]pentyl]-3,4-dihydro-1H-isoquinoline]",< 3.00,–
–,–,"COc1cccc(CCc2ccccc2OCCN2CCc3ccccc3C2)c1 [SC126, 2-[2-[2-[2-(3-methoxyphenyl)ethyl]phenoxy]ethyl]-3,4-dihydro-1H-isoquinoline]",–,pKi (D2R [2]; read-out: KI): < 3.00
–,–,"c1ccc(CCC2CN(Cc3nc4ccccc4[nH]3)CCO2)cc1 (stereo not shown) [SC127, 4-(1H-benzimidazol-2-ylmethyl)-2-(2-phenylethyl)morpholine]",< 4.00,–
30.65 ± 6.79,–,"CCN1CCC[C@H]1CNC(=O)c1cc(S(N)(=O)=O)ccc1OC [Sulpiride, (S)-(−)-sulpiride]",–,–
–,1.02 ± 0.36,SC144,–,–

Compound,Normalized Decrease in Fluorescence ± SD (D2R [1]),NDF (normalized decreased fluorescence) ± SD (D2R [1]),pKi (D2R [2]; [4]),further results
"CC(C)C[C@H]1C(=O)N2CCC[C@H]2[C@]2(O)O[C@](NC(=O)[C@@H]3C=C4c5cccc6[nH]c(Br)c(c56)C[C@H]4N(C)C3)(C(C)C)C(=O)N12 [Compound 2, Bromocriptine]",39.10 ± 1.31,–,–,pKi (D2R [2]): 9.05
C=CC1CN2CCC1CC2C(O)c1ccnc2ccc(O)cc12 (stereo not shown) [Compound 10],–,1.13 ± 0.37,–,–
